Measurements: patent US8883963B2 (Cadila Healthcare Limited, priority 2007, dated 2014)
Starred links: 1 amine or outer side, 2 acyl side, 3 side chain; linkers in the order of their positions; H or OH if unused. Non-standard residues stand in square brackets, D forms with d. Residues, ends and D or L forms follow the SMILES beside them. ξ: configuration not given here. ξBip(2'-Et-4'-OMe) = CCc1cc(OC)ccc1-c1ccc(CC(N)C(=O)O)cc1; X1 = O=C(C(CCCc1ccc(C(F)(F)F)cc1F)N[*:1])[*:2]

Assays:
[1] = Stability in simulated intestinal fluid; assay type: in vitro ADME; conditions: 2 μM peptidomimetic, simulated intestinal fluid pH 7.5, 37° C.; for half-life at 2 μM: read-out: half-life (t1/2) when incubated with simulated intestinal fluid
Procedure: (§1) Reactions were terminated by the addition of TFA/H2O (15 mL, 10% (v/v)). […] The column was equilibrated with TFA/H20, at a flow rate of 1 mL/min.

[2] = target: DPP IV (Homo sapiens, UniProt P27487); assay: Stability against DPP IV enzyme; assay type: in vitro ADME; conditions: 37° C.; for % degradation of peptidomimetics in 24 h when incubated with DPP-IV enzyme: 2 μM peptidomimetic; for half-life at 2 μM: DPP IV enzyme, pH 7.8, 2 μM peptidomimetic, read-out: half-life (t1/2) when incubated with DPP-IV enzyme
Procedure: as §1

[3] = Stability in simulated gastric fluid; assay type: in vitro ADME; conditions: 2 μM peptidomimetic, simulated gastric fluid pH 1.5, 37° C.; for half-life at 2 μM: read-out: half-life (t1/2) when incubated with simulated gastric fluid
Procedure: as §1

[4] = Stability in human plasma; assay type: in vitro ADME; conditions: 2 μM peptidomimetic, pooled human plasma, 37° C.; for half-life at 2 μM: pH 7.8, read-out: half-life (t1/2) when incubated with human plasma
Procedure: as §1

[5] = target: T1, Human GLP-1 receptor (Homo sapiens, UniProt P43220); assay: In vitro Human GLP-1 R agonist activity (cyclic AMP determination) in CHO/human GLP1R cells; assay type: cell-based
T1 construct: The full-length cDNA was cloned in pcDNA3.1(+); expressed in transfected cells

[6] = Stability in liver microsomes; assay type: in vitro ADME; conditions: 2 μM peptidomimetic, human liver microsomes, 37° C.; for half-life at 2 μM: pH 7.8, read-out: half-life (t1/2) when incubated with liver microsomes
Procedure: as §1

[7] = tested on: RIN5F (Rat Insulinoma) cells; assay: In vitro glucose-dependent insulin secretion (RIN5F cell assay screening protocol); assay type: cell-based; conditions: 16.7 mM glucose load
[8] = target: T2, human glucagon receptor (Homo sapiens, UniProt P47871); assay: In vitro human glucagon antagonist activity (inhibition of cAMP production) in CHO/human glucagon R cells; assay type: cell-based; conditions: with saturated concentration of glucagon peptide
T2 construct: The full-length cDNA was cloned in pcDNA3.1 (Invitrogen); expressed in transfected cells
T2 sequence (P47871 26-477): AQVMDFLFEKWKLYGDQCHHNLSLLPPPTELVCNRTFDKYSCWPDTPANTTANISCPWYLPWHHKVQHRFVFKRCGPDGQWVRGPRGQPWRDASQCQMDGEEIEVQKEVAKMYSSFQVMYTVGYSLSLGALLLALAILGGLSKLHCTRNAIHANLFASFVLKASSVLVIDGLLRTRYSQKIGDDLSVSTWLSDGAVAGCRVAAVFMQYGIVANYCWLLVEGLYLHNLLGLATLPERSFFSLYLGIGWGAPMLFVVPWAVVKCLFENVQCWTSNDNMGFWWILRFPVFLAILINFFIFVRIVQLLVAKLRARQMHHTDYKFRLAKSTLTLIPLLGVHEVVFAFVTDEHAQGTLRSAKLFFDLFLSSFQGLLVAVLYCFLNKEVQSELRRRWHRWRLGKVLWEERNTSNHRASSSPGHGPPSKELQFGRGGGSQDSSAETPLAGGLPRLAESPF

Chain of DPP IV (P27487 whole entry, species assumed): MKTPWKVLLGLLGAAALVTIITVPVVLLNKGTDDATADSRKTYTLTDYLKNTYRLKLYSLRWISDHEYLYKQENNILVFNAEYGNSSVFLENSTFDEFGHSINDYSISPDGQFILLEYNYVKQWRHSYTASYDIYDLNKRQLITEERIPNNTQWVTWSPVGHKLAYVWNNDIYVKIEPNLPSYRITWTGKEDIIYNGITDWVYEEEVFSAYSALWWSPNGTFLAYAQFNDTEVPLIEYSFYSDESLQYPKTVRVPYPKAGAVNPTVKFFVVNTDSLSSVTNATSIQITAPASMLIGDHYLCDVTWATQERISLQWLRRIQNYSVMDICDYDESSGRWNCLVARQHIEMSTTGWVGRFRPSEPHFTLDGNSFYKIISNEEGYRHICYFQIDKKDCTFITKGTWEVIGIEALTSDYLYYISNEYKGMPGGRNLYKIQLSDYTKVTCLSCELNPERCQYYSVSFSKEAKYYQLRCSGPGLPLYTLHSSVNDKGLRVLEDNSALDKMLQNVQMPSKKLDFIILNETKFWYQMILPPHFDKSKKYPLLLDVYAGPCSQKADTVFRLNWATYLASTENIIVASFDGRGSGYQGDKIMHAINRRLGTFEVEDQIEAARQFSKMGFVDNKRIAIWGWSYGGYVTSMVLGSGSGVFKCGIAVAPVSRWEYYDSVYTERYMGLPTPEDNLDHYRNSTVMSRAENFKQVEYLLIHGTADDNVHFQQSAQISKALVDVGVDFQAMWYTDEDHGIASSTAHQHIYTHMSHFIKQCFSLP
T1 sequence (P43220 24-463): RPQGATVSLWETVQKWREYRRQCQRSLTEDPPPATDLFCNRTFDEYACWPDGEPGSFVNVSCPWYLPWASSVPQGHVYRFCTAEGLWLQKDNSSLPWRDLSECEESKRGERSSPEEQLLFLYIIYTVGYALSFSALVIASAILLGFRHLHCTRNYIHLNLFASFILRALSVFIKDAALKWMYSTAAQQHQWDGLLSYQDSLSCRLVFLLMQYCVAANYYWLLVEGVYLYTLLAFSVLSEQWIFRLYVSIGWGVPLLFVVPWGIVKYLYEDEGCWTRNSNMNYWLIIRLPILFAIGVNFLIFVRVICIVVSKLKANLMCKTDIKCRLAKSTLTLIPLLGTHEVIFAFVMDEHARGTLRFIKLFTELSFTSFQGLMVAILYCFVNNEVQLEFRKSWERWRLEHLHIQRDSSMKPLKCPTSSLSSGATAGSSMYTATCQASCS

Row | Compound | % degradation of peptidomimetics in 24 h when incubated with simulated intestinal fluid [1] | half-life at 2 μM [1] | % degradation of peptidomimetics in 24 h when incubated with DPP-IV enzyme [2] | % degradation of peptidomimetics in 24 h when incubated with simulated gastric fluid [3] | half-life at 2 μM [3] | % degradation of peptidomimetics in 24 h when incubated with human plasma [4] | Human GLP-1 R activity (cAMP release), % activity with respect to control ([5]; 1 nM test compound) | Human GLP-1 R activity (cAMP release), % activity with respect to control ([5]; 10 nM test compound) | Human GLP-1 R activity (cAMP release), % activity with respect to control ([5]; 100 nM test compound) | Human GLP-1 R activity (cAMP release), % activity with respect to control ([5]; 1 μM test compound) | Human GLP-1 R activity (cAMP release), % activity with respect to control ([5]; 10 μM test compound) | % degradation of peptidomimetics in 24 h when incubated with liver microsomes [6] | half-life at 2 μM [6] | Insulin secretion ([7]; 0.1 nM test compd.) | Insulin secretion ([7]; 1 nM test compd.) | Insulin secretion ([7]; 10 nM test compd.) | half-life (t1/2) when incubated with simulated intestinal fluid [1] | half-life at 2 μM [2] | half-life (t1/2) when incubated with simulated gastric fluid [3] | half-life at 2 μM [4] | other results
1 | CCc1cc(OC)ccc1-c1ccc(CC(NC(=O)[C@H](CC(=O)O)NC(=O)[C@H](CO)NC(=O)[C@@H](NC(=O)[C@H](Cc2ccccc2)NC(=O)[C@@H](NC(=O)CNC(=O)C(CCC#N)NC(=O)C(C)(C)NC(=O)[C@@H](N)Cc2c[nH]cn2)[C@@H](C)O)[C@@H](C)O)C(=O)NC(CCCc2ccc(Cl)cc2C)C(N)=O)cc1 (single isomer, unassigned) [compound 32] | 100% | 0.5 h | 75% | 100% | 0.5 h | 77% | 39 ± 0.11% | 80 ± 0.09% | 88 ± 0.06% | 96 ± 0.14% | 99 ± 0.19% | 100% | 0.5 h | 12.1 ± 0.52 pg/µg/h | 14.1 ± 0.16 pg/µg/h | 28.0 ± 0.36 pg/µg/h | – | – | – | – | half-life (t1/2) when incubated with human plasma [4]: (9) h
2 | CCc1cc(OC)ccc1-c1ccc(CC(NC(=O)[C@H](CC(=O)O)NC(=O)[C@H](CO)NC(=O)[C@@H](NC(=O)[C@H](Cc2ccccc2)NC(=O)[C@@H](NC(=O)CNC(=O)[C@H](CCC(N)=O)NC(=O)[C@H](CO)NC(=O)[C@@H](N)Cc2c[nH]cn2)[C@@H](C)O)[C@@H](C)O)C(=O)NC(CCCc2ccccc2C(F)(F)F)C(N)=O)cc1 (single isomer, unassigned) [compound 47] | 55% | – | 76% | 12% | – | 78% | 55 ± 0.16% | 89 ± 0.05% | 93 ± 0.09% | 99 ± 0.02% | 99 ± 0.04% | 79% | 1 h | 13.1 ± 0.11 pg/µg/h | 14.9 ± 0.17 pg/µg/h | 28.8 ± 0.44 pg/µg/h | (6) h | 9 h | (8) h | 8 h | –
3 | CCc1cc(OC)ccc1-c1ccc(CC(NC(=O)[C@H](CC(=O)O)NC(=O)[C@H](CO)NC(=O)[C@@H](NC(=O)[C@H](Cc2ccccc2)NC(=O)[C@@H](NC(=O)CNC(=O)[C@H](CCC(N)=O)NC(=O)[C@H](CO)NC(=O)[C@@H](N)Cc2c[nH]cn2)[C@@H](C)O)[C@@H](C)O)C(=O)NC(CCCc2ccccc2Cl)C(N)=O)cc1 (single isomer, unassigned) [compound 50] | 50% | – | 77% | 13% | – | 80% | 60 ± 0.12% | 92 ± 0.15% | 98 ± 0.18% | 99 ± 0.03% | 99 ± 0.09% | 82% | 1 h | 15.4 ± 0.14 pg/µg/h | 21.2 ± 0.18 pg/µg/h | 35.6 ± 0.17 pg/µg/h | (6) h | 9 h | (8) h | 8 h | –
4 | CCc1cc(OC)ccc1-c1ccc(CC(NC(=O)[C@H](CC(=O)O)NC(=O)[C@H](CO)NC(=O)[C@@H](NC(=O)[C@H](Cc2ccccc2)NC(=O)[C@@H](NC(=O)CNC(=O)C(CCC#N)NC(=O)C(C)(C)NC(=O)[C@@H](N)Cc2c[nH]cn2)[C@@H](C)O)[C@@H](C)O)C(=O)NC(CCCc2ccc(F)cc2C(F)(F)F)C(N)=O)cc1 (single isomer, unassigned) [compound 80] | 100% | 0.5 h | 72% | 100% | 0.5 h | 70% | 66 ± 0.022% | 97 ± 0.46% | 99 ± 0.41% | 99 ± 0.66% | 99 ± 0.03% | 100% | 0.5 h | 16.2 ± 0.13 pg/µg/h | 22.4 ± 0.19 pg/µg/h | 36.2 ± 0.09 pg/µg/h | – | – | – | – | half-life (t1/2) when incubated with human plasma [4]: (9) h
5 | CCc1cc(OC)ccc1-c1ccc(CC(NC(=O)[C@H](CC(=O)O)NC(=O)[C@H](CO)NC(=O)[C@@H](NC(=O)[C@H](Cc2ccccc2)NC(=O)[C@@H](NC(=O)CNC(=O)C(CCC#N)NC(=O)C(C)(C)NC(=O)[C@@H](N)Cc2c[nH]cn2)[C@@H](C)O)[C@@H](C)O)C(=O)NC(CCCc2ccc(C(F)(F)F)cc2F)C(N)=O)cc1 (single isomer, unassigned) [compound 81] | 00% | > 24 h | 00% | 50% | 4 h | 00% | 69 ± 0.09% | 98 ± 0.07% | 99 ± 0.04% | 99 ± 0.01% | 99 ± 0.08% | 86% | 2 h | 17.1 ± 0.15 pg/µg/h | 23.1 ± 0.12 pg/µg/h | 37.0 ± 0.19 pg/µg/h | – | > 24 h | – | > 24 h | –
6 | CCc1cc(OC)ccc1-c1ccc(CC(NC(=O)[C@H](CC(=O)O)NC(=O)[C@H](CO)NC(=O)[C@@H](NC(=O)[C@H](Cc2ccccc2)NC(=O)[C@@H](NC(=O)CNC(=O)[C@H](CCC(N)=O)NC(=O)[C@H](CO)NC(=O)[C@@H](N)Cc2c[nH]cn2)[C@@H](C)O)[C@@H](C)O)C(=O)NC(CCCc2ccc(C(F)(F)F)cc2F)C(N)=O)cc1 (stereo partly shown) [compound 49] (H-HSQGTFTSD[ξBip(2'-Et-4'-OMe)][X1]-NH2) | 45% | – | 75% | 14% | – | 77% | – | – | – | – | – | 81% | 1 h | 16.1 ± 0.22 pg/µg/h | 22.1 ± 0.26 pg/µg/h | 36.0 ± 0.36 pg/µg/h | (6) h | 9 h | (8) h | 8 h | Human Glucagon receptor antagonistic activity shown as inhibition of cAMP production of Glucagon peptide ([8]; 1 nM test compound): 10 ± 0.03 pmol/ml/μg prt; Human Glucagon receptor antagonistic activity shown as inhibition of cAMP production of Glucagon peptide ([8]; 10 nM test compound): 8 ± 0.03 pmol/ml/μg prt; Human Glucagon receptor antagonistic activity shown as inhibition of cAMP production of Glucagon peptide ([8]; 100 nM test compound): 6 ± 0.22 pmol/ml/μg prt; Human Glucagon receptor antagonistic activity shown as inhibition of cAMP production of Glucagon peptide ([8]; 1 μM test compound): 2 ± 0.13 pmol/ml/μg prt; Human Glucagon receptor antagonistic activity shown as inhibition of cAMP production of Glucagon peptide ([8]; 10 μM test compound): 0 pmol/ml/μg prt
